Results on 34 compounds are retold here after US20240101546A1, “HETEROARYL-ACETYLENES, PHARMACEUTICAL COMPOSITIONS THEREOF, AND THEIR THERAPEUTIC APPLICATIONS” (Eubulus Biotherapeutics Inc., priority 2020, published 2024).

In the experiment the test system is lung cancer cell line NCI-H82. Briefly: Cell proliferation assay, NCI-H82 (CELL-TITER GLO). In kind it is cell-based. The conditions noted are these: Homo sapiens, NCI-H82, 72 h, NCI-H82 cells, 72 h incubation, cell viability by CELL-TITER GLO, top concentration 1 μM; read-out: EC50, Inhibition of NCl-H82 Cell Proliferation. The gist of the method: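 NCI-H82 cells, 1,000 per well in RPMI1640, were treated after overnight plating with a 3-fold dilution series from 1 μM. Viability read by CellTiter-Glo luminescence after 72 h. EC50 derived from the curves.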

A value given as a limit tells only on which side of the number the result lay.

As for `C#Cc1nc(NC(=O)N[C@@H](CO)c2ccc(-n3ccccc3=O)cc2)cs1` [Compound A132, (R)-1-(2-Ethynylthiazol-4-yl)-3-(2-hydroxy-1-(4-(2-oxopyridin-1(2H)-yl)phenyl)-ethyl)urea], the EC50 is not above 200 nM.

With `C#Cc1nc(NC(=O)N[C@@H](CO)c2ccc(N3CCOCC3)cc2)cs1` [Compound A133, (R)-1-(2-Ethynylthiazol-4-yl)-3-(2-hydroxy-1-(4-morpholinophenyl)ethyl)urea], the EC50 was not above 200 nM. `C#Cc1nc(NC(=O)N[C@@H](CO)c2ccc(N3CCOCC3=O)cc2)cs1` [Compound A134, (R)-1-(2-Ethynylthiazol-4-yl)-3-(2-hydroxy-1-(4-(3-oxomorpholino)phenyl)-ethyl)urea]: the EC50 lay within 200 to 1000 nM. To `C#Cc1nc(NC(=O)N[C@@H](CO)c2ccc(N3CCCCC3)cn2)cs1` [Compound A135, (R)-1-(2-Ethynylthiazol-4-yl)-3-(2-hydroxy-1-(5-(piperidin-1-yl)pyridin-2-yl)-ethyl)urea] belongs not above 200 nM; to `C#Cc1nc(NC(=O)N[C@@H](CO)c2ccc(N3CCCC(F)(F)C3)cn2)cs1` [Compound A136, (R)-1-(1-(5-(3,3-Difluoropiperidin-1-yl)pyridin-2-yl)-2-hydroxyethyl)-3-(2-ethynylthiazol-4-yl)urea], not above 200 nM; to `C#Cc1nc(NC(=O)N[C@@H](CO)c2ccc(N3CCCCCC3)cc2)cs1` [Compound A137, (R)-1-(1-(4-(Azepan-1-yl)phenyl)-2-hydroxyethyl)-3-(2-ethynylthiazol-4-yl)urea], not above 200 nM. In the case of `C#Cc1nc(NC(=O)N[C@@H](CO)c2ccc(N3CCCCCC3=O)cc2)cs1` [Compound A138, (R)-1-(2-Ethynylthiazol-4-yl)-3-(2-hydroxy-1-(4-(2-oxoazepan-1-yl)phenyl)-ethyl)urea], the EC50 is not above 200 nM. Regarding `C#Cc1nc(NC(=O)N[C@@H](CO)c2ccc(N3CCCc4c3cnn4C)cc2)cs1` [Compound A139, (R)-1-(2-Ethynylthiazol-4-yl)-3-(2-hydroxy-1-(4-(1-methyl-1,5,6,7-tetrahydro-4H-pyrazolo[4,3-b]pyridin-4-yl)phenyl)ethyl)urea], the EC50 was not above 200 nM. For the compound `C#Cc1nc(NC(=O)N[C@@H](CO)c2ccc(N3CCCc4nn(C)cc43)cc2)cs1` [Compound A140, (R)-1-(2-Ethynylthiazol-4-yl)-3-(2-hydroxy-1-(4-(2-methyl-2,5,6,7-tetrahydro-4H-pyrazolo[4,3-b]pyridin-4-yl)phenyl)ethyl)urea], the EC50 was not above 200 nM.

`C#Cc1nc(NC(=O)N[C@@H](CO)c2ccc(C3=C(C#N)CCCC3)cc2)cs1` [Compound A141, (R)-1-(1-(6′-Cyano-2′,3′,4′,5′-tetrahydro-[1,1′-biphenyl]-4-yl)-2-hydroxyethyl)-3-(2-ethynylthiazol-4-yl)urea]: the EC50 is not above 200 nM. Take `C#Cc1nc(NC(=O)N[C@@H](CO)c2ccc(C3=C(C#N)CCCC3)cn2)cs1` [Compound A142, (R)-1-(1-(5-(2-Cyanocyclohex-1-en-1-yl)pyridin-2-yl)-2-hydroxyethyl)-3-(2-ethynylthiazol-4-yl)urea]: the EC50 is not above 200 nM. For `C#Cc1nc(NC(=O)N[C@@H](CO)c2ccc(C3CCCCN3C(C)=O)cc2)cs1` (stereo partly drawn) [Compound A143, 1-((1R)-1-(4-(1-Acetylpiperidin-2-yl)phenyl)-2-hydroxyethyl)-3-(2-ethynyl-thiazol-4-yl)urea], the EC50 was not above 200 nM. To `C#Cc1nc(NC(=O)N[C@H](CO)C(=O)N2CC(c3ccccc3C#N)C2)cs1` [Compound A144, (R)-1-(1-(3-(2-Cyanophenyl)azetidin-1-yl)-3-hydroxy-1-oxopropan-2-yl)-3-(2-ethynylthiazol-4-yl)urea] belongs 200 to 1000 nM; to `C#Cc1nc(NC(=O)N[C@@H](CO)C(=O)N2CC(c3ccccc3C#N)C2)cs1` [Compound A145, (S)-1-(1-(3-(2-Cyanophenyl)azetidin-1-yl)-3-hydroxy-1-oxopropan-2-yl)-3-(2-ethynylthiazol-4-yl)urea], 200 to 1000 nM.

For the compound `C#Cc1nc(NC(=O)N[C@H](CO)C(=O)N2CCC(c3ccccc3C#N)CC2)cs1` [Compound A146, (R)-1-(1-(4-(2-Cyanophenyl)piperidin-1-yl)-3-hydroxy-1-oxopropan-2-yl)-3-(2-ethynylthiazol-4-yl)urea], the EC50 was in the range of 200 to 1000 nM. To `C#Cc1nc(NC(=O)N[C@@H](CO)C(=O)N2CCC(c3ccccc3C#N)CC2)cs1` [Compound A147, (S)-1-(1-(4-(2-Cyanophenyl)piperidin-1-yl)-3-hydroxy-1-oxopropan-2-yl)-3-(2-ethynylthiazol-4-yl)urea] belongs 200 to 1000 nM.

`C#Cc1nc(NC(=O)N[C@H](CO)C(=O)N2CCN(c3ccccc3C#N)CC2)cs1` [Compound A148, (R)-1-(1-(4-(2-Cyanophenyl)piperazin-1-yl)-3-hydroxy-1-oxopropan-2-yl)-3-(2-ethynylthiazol-4-yl)urea]: the EC50 was not above 200 nM. Consider `C#Cc1nc(NC(=O)N[C@@H](CO)C(=O)N2CCN(c3ccccc3C#N)CC2)cs1` [Compound A149, (S)-1-(1-(4-(2-Cyanophenyl)piperazin-1-yl)-3-hydroxy-1-oxopropan-2-yl)-3-(2-ethynylthiazol-4-yl)urea], for which the EC50 was not above 200 nM. For the compound `C#Cc1nc(NC(=O)N[C@@H](CO)C2CCN(c3ccccc3C#N)CC2)cs1` [Compound A150, (R)-1-(1-(1-(2-Cyanophenyl)piperidin-4-yl)-2-hydroxyethyl)-3-(2-ethynylthiazol-4-yl)urea], the EC50 is not above 200 nM. Regarding `C#Cc1nc(NC(=O)N[C@H](CO)C2CCN(c3ccccc3C#N)CC2)cs1` [Compound A151, (S)-1-(1-(1-(2-Cyanophenyl)piperidin-4-yl)-2-hydroxyethyl)-3-(2-ethynylthiazol-4-yl)urea], the EC50 was not above 200 nM. As to `C#Cc1nc(NC(=O)N[C@@H](CO)C(=O)N2CCC3(CC2)CC3)cs1` [Compound A152, (S)-1-(2-Ethynylthiazol-4-yl)-3-(3-hydroxy-1-oxo-1-(6-azaspiro[2.5]octan-6-yl)propan-2-yl)urea], the EC50 is not above 200 nM. With `C#Cc1nc(NC(=O)N[C@@H](CO)C(=O)N2CCC3(CCC3)CC2)cs1` [Compound A153, (S)-1-(2-Ethynylthiazol-4-yl)-3-(3-hydroxy-1-oxo-1-(7-azaspiro[3.5]nonan-7-yl)propan-2-yl)urea] the figure was not above 200 nM. Turning to `C#Cc1nc(NC(=O)N[C@@H](CO)C(=O)N2CCC3(CCCC3)CC2)cs1` [Compound A154, (S)-1-(2-Ethynylthiazol-4-yl)-3-(3-hydroxy-1-oxo-1-(8-azaspiro[4.5]decan-8-yl)propan-2-yl)urea], the EC50 is not above 200 nM. With `C#Cc1nc(NC(=O)N[C@H](CO)C(=O)N2CCC3(CCCC3)CC2)cs1` [Compound A155, (R)-1-(2-Ethynylthiazol-4-yl)-3-(3-hydroxy-1-oxo-1-(8-azaspiro[4.5]decan-8-yl)propan-2-yl)urea] the figure was not above 200 nM.

`C#Cc1ncc(NC(=O)N[C@@H](CO)C(=O)N2CCC3(CCCC3=O)CC2)s1` [Compound A156, (S)-1-(2-Ethynylthiazol-5-yl)-3-(3-hydroxy-1-oxo-1-(1-oxo-8-azaspiro[4.5]decan-8-yl)propan-2-yl)urea]: the EC50 was not above 200 nM. Regarding `C#Cc1nc(NC(=O)N[C@@H](CO)C(=O)N2CCC3(CCCCC3)CC2)cs1` [Compound A157, (S)-1-(2-Ethynylthiazol-4-yl)-3-(3-hydroxy-1-oxo-1-(3-azaspiro[5.5]undecan-3-yl)propan-2-yl)urea], the EC50 was not above 200 nM.

On to `C#Cc1nc(NC(=O)N[C@@H](CO)C(=O)N2CCC3(CC2)CCC(F)(F)CC3)cs1` [Compound A158, (S)-1-(1-(9,9-Difluoro-3-azaspiro[5.5]undecan-3-yl)-3-hydroxy-1-oxopropan-2-yl)-3-(2-ethynylthiazol-4-yl)urea], for which the EC50 was not above 200 nM. For the compound `C#Cc1nc(NC(=O)N[C@@H](CO)C(=O)N2CCC(N3CC(F)(F)C3)CC2)cs1` [Compound A159, (S)-1-(1-(4-(3,3-Difluoroazetidin-1-yl)piperidin-1-yl)-3-hydroxy-1-oxopropan-2-yl)-3-(2-ethynylthiazol-4-yl)urea], the EC50 was more than 5000 nM. For `C#Cc1nc(NC(=O)N[C@H](CO)C(=O)N2CCC(N3CC(F)(F)C3)CC2)cs1` [Compound A160, (R)-1-(1-(4-(3,3-Difluoroazetidin-1-yl)piperidin-1-yl)-3-hydroxy-1-oxopropan-2-yl)-3-(2-ethynylthiazol-4-yl)urea], the EC50 was in the range of 200 to 1000 nM.

`C#Cc1nc(NC(=O)N[C@@H](CO)C(=O)N2CCC(F)(F)CC2)cs1` [Compound A161, (S)-1-(1-(4,4-Difluoropiperidin-1-yl)-3-hydroxy-1-oxopropan-2-yl)-3-(2-ethynyl-thiazol-4-yl)urea]: the EC50 was not above 200 nM. With `C#Cc1nc(NC(=O)Nc2ncnc3c(F)c(-c4c(F)cccc4OC)c(Cl)cc23)cs1` [Compound A162, 1-(6-Chloro-8-fluoro-7-(2-fluoro-6-methoxyphenyl)quinazolin-4-yl)-3-(2-ethynylthiazol-4-yl)urea], the EC50 is not above 200 nM.

For `C#Cc1nc(NC(=O)Nc2ncnc3cc(-c4c(O)cccc4F)ccc23)cs1` [Compound A163, 1-(2-Ethynylthiazol-4-yl)-3-(7-(2-fluoro-6-hydroxyphenyl)quinazolin-4-yl)urea], the EC50 was not above 200 nM. For `C#Cc1nc(NC(=O)Nc2ncnc3c(F)c(-c4cccc5ncsc45)c(Cl)cc23)cs1` [Compound A165, 1-(7-(Benzo[d]thiazol-7-yl)-6-chloro-8-fluoroquinazolin-4-yl)-3-(2-ethynyl-thiazol-4-yl)urea], the EC50 was not above 200 nM. As to `C#Cc1nc(NC(=O)Nc2ncnc3cc(-c4cccnc4C4(C#N)CC4)ccc23)cs1` [Compound A166, 1-(7-(2-(1-Cyanocyclopropyl)pyridin-3-yl)quinazolin-4-yl)-3-(2-ethynylthiazol-4-yl)urea], the EC50 was not above 200 nM.
